EC50 data for 39 compounds are collected here from patent US20250223301A1, “KINASE INHIBITORS, PREPARATION METHODS AND USES THEREOF” (InventisBio Co., Ltd., priority 2022, published 2025).

Each structure is given as a SMILES string.

For experiment [1], the system named is Jurkat cells. Put plainly: Jurkat IL-2 assay. The experiment is classed as cell-based. The conditions noted are these: Homo sapiens, anti-CD3/CD28 stimulation overnight, IL-2 level. The procedure:
Jurkat cells (ATCC) were cultured in RPMI-1640 medium supplemented with 10% FBS. In a 96-well plate, −250,000 cells in 130 uL were added to each assay well. Ten microliter compound solution (5 uM to 2.3 nM, 8 points with 3-fold dilution) were added to cells in each well and incubated for 60 minutes at 37° C. Then 10 uL anti-CD3/CD28 antibody (Catalog #10991, Stemcell) were added and incubated overnight at 37° C. After the incubation, 16 uL supernatants were transferred into a new 384-well white assay plate for cytokine analysis. IL-2 was quantified using Human IL-2 kit (Catalog #62HIL02PEG, Cisbio) as described in the manufacturer manual.
(§1) X is log of compound concentration, Y is the IL-2 concentration, increasing as X increases.

For experiment [2], the system named is PBMC. Briefly: Human PBMC IL-2 assay. The class given is cell-based. As to conditions: anti-CD3/CD28 stimulation overnight, IL-2 level. The method, then: PBMC (frozen) obtained from health donor were thawed in RPMI-1640 medium with 10% FBS and incubated for 4 h at 37° C. In a 96-well plate, −200,000 PBMC cells in 160 uL were added to each assay well. Ten microliter compound solution (10 uM to 0.6 nM, 8 points with 4-fold dilution) were added to cells in each well and incubated for 60 minutes at 37° C. Then 30 uL anti-CD3/CD28 antibody (Catalog #10991, Stemcell) were added to cells and incubated overnight at 37° C. After the incubation, 16 uL supernatants were transferred into a new 384-well white assay plate for cytokine analysis. IL-2 level was quantified using Human IL-2 kit (Catalog #62HIL02PEG, Cisbio) as described in the manufacturer manual.
as §1

As a reminder, the EC50 is the concentration needed to bring the measured effect to its halfway point. Low readings indicate greater potency, high ones weaker potency. `C[C@@H]1CN2c3c(c(=O)n(C)c4ccc(C#N)nc34)OC[C@@H]2CN1[C@@H](C)c1ccc(C(C)(F)F)cc1` (stereo in doubt) [Compound 304]: the EC50 in experiment [1] was 34 nM; in experiment [2], 24 nM.

On to `CC[C@@H](c1ccc(C(F)(F)F)cc1F)N1C[C@H]2COc3c(c4nc(C#N)ccc4n(C)c3=O)N2C[C@H]1C` (stereo in doubt) [Compound 306], for which the concentration for a half-maximal effect (EC50) stood at 36 nM in experiment [1] and 30 nM in experiment [2].

Consider `CC[C@@H](c1ccc(Cl)cc1F)N1C[C@H]2COc3c(c4nc(C#N)ccc4n(C)c3=O)N2C[C@H]1C` (stereo in doubt) [Compound 308], for which the EC50 in experiment [1] was 9 nM; in experiment [2], 18 nM.

For `CCC[C@@H](c1ccc(Cl)cc1)N1C[C@H]2COc3c(c4nc(C#N)ccc4n(C)c3=O)N2C[C@H]1CC` (stereo in doubt) [Compound 311], the EC50 in experiment [1] is 54 nM; in experiment [2], 1 nM.

As for `CCC[C@H](c1ccc(Cl)cc1)N1C[C@H]2COc3c(c4nc(C#N)ccc4n(C)c3=O)N2C[C@H]1CC` (stereo in doubt) [Compound 312], the 50% effective concentration (EC50) in experiment [1] came to 218 nM; in experiment [2], 49 nM.

Turning to `C[C@@H]1CN2c3c(c(=O)n(C)c4ccc(C#N)nc34)OC[C@@H]2CN1[C@H](C)c1ccc(C(F)F)cc1` (stereo in doubt) [Compound 314], the half-maximal effective concentration (EC50) in experiment [1] stood at 77 nM; in experiment [2], 22 nM.

Consider `CC[C@H]1CN([C@H](C)c2ccc(C(F)(F)F)cc2)[C@H](C)CN1c1nc2nncn2c2ccc(C#N)nc12` (stereo in doubt) [Compound 315], for which the EC50 in experiment [1] turned out to be 90 nM; in experiment [2], 63 nM.

On to `CC[C@H]1CN([C@@H](C)c2ccc(C(F)(F)F)cc2)[C@H](C)CN1c1nc2nncn2c2ccc(C#N)nc12` (stereo in doubt) [Compound 316], for which the half-maximal effective concentration (EC50) in experiment [1] is 707 nM; in experiment [2], 742 nM.

For `CC[C@H](c1ccc(Cl)c(C(F)(F)F)c1)N1C[C@H]2COc3c(c4nc(C#N)ccc4n(C)c3=O)N2C[C@H]1C` (stereo in doubt) [Compound 317], the EC50 in experiment [1] turned out to be 21 nM; in experiment [2] it was 105 nM.

For `CC[C@@H](c1ccc(Cl)c(C(F)(F)F)c1)N1C[C@H]2COc3c(c4nc(C#N)ccc4n(C)c3=O)N2C[C@H]1C` (stereo in doubt) [Compound 318], the EC50 in experiment [1] was 359 nM; in experiment [2] it was 349 nM.

For the compound `CC[C@@H]1CN2c3c(c(=O)n(C)c4ccc(C#N)nc34)OC[C@@H]2CN1[C@@H](CC)c1ccc(C(F)(F)F)c(F)c1` (stereo in doubt) [Compound 319], the EC50 in experiment [1] was found to be 519 nM; in experiment [2] it was 285 nM.

As to `CC[C@@H]1CN2c3c(c(=O)n(C)c4ccc(C#N)nc34)OC[C@@H]2CN1[C@H](CC)c1ccc(C(F)(F)F)c(F)c1` (stereo in doubt) [Compound 320], the figures for the 50% effective concentration (EC50) in experiment [1] and in experiment [2] were 42 nM and 56 nM, respectively.

Consider `CC[C@H](c1ccc(Cl)c(Cl)c1)N1C[C@H]2COc3c(c4nc(C#N)ccc4n(C)c3=O)N2C[C@H]1C` (stereo in doubt) [Compound 321], for which the figures for the 50% effective concentration (EC50) in experiment [1] and in experiment [2] were 223 nM and 540 nM, respectively.

In the case of `CC[C@H](c1ccc(C(F)(F)F)c(Cl)c1)N1C[C@H]2COc3c(c4nc(C#N)ccc4n(C)c3=O)N2C[C@H]1C` (stereo in doubt) [Compound 323], the concentration for a half-maximal effect (EC50) in experiment [1] was determined as 364 nM; in experiment [2], 474 nM.

`CC[C@@H](c1ccc(C(F)(F)F)c(Cl)c1)N1C[C@H]2COc3c(c4nc(C#N)ccc4n(C)c3=O)N2C[C@H]1C` (stereo in doubt) [Compound 324]: the half-maximal effective concentration (EC50) in experiment [1] came to 95 nM; in experiment [2], 49 nM.

`CC[C@@H]1CN2c3c(c(=O)n(C)c4ccc(C#N)nc34)OC[C@@H]2CN1[C@@H](CC)c1ccc(Cl)c(C(F)(F)F)c1` (stereo in doubt) [Compound 327]: the figures for the 50% effective concentration (EC50) in experiment [1] and in experiment [2] were 64 nM and 103 nM, respectively.

For the compound `CC[C@H](c1ccc(C(F)(F)F)c(F)c1)N1C[C@H]2COc3c(c4nc(C#N)ccc4n(C)c3=O)N2C[C@H]1C` (stereo in doubt) [Compound 328], the EC50 in experiment [1] worked out at 339 nM; in experiment [2], 302 nM.

Consider `CC[C@@H](c1ccc(C(F)(F)F)c(F)c1)N1C[C@H]2COc3c(c4nc(C#N)ccc4n(C)c3=O)N2C[C@H]1C` (stereo in doubt) [Compound 329], for which the EC50 in experiment [1] came out at 97 nM; in experiment [2], 54 nM.

As to `CC[C@@H]1CN2c3c(c(=O)n(C)c4ccc(C#N)nc34)OC[C@@H]2CN1[C@H](CC)c1ccc(F)c(C)c1` (stereo in doubt) [Compound 336], the results for the EC50 in experiment [1] and in experiment [2] were 131 nM and 163 nM, respectively.

Take `CC[C@@H]1CN2c3c(c(=O)n(C)c4ccc(C#N)nc34)OC[C@@H]2CN1[C@@H](CC)c1ccc(F)c(C)c1` (stereo in doubt) [Compound 337]: the EC50 in experiment [1] stood at 12 nM; in experiment [2], 16 nM.

As for `CC[C@@H]1CN2c3c(c(=O)n(C)c4ccc(C#N)nc34)OC[C@@H]2CN1[C@H](CC)c1ccc(C)c(F)c1` (stereo in doubt) [Compound 338], the figures for the EC50 in experiment [1] and in experiment [2] were 86 nM and 153 nM, respectively.

Regarding `CC[C@@H]1CN2c3c(c(=O)n(C)c4ccc(C#N)nc34)OC[C@@H]2CN1[C@@H](CC)c1ccc(C)c(F)c1` (stereo in doubt) [Compound 339], the EC50 in experiment [1] was 7 nM; in experiment [2], 13 nM.

For `CC[C@@H]1CN2c3c(c(=O)n(C)c4ccc(C#N)nc34)OC[C@@H]2CN1[C@@H](CC)c1ccc(Cl)c(C)c1` (stereo in doubt) [Compound 341], the half-maximal effective concentration (EC50) in experiment [1] came to 6 nM; in experiment [2], 13 nM.

As for `CC[C@@H]1CN2c3c(c(=O)n(C)c4ccc(C#N)nc34)OC[C@@H]2CN1[C@H](CC)c1ccc(C)c(Cl)c1` (stereo in doubt) [Compound 342], the half-maximal effective concentration (EC50) in experiment [1] came to 125 nM; in experiment [2] it was 280 nM.

Consider `CC[C@@H]1CN2c3c(c(=O)n(C)c4ccc(C#N)nc34)OC[C@@H]2CN1[C@@H](CC)c1ccc(C)c(Cl)c1` (stereo in doubt) [Compound 343], for which the figures for the EC50 in experiment [1] and in experiment [2] were 45 nM and 18 nM, respectively.

As for `CC[C@@H]1CN2c3c(c(=O)n(C)c4ccc(C#N)nc34)OC[C@@H]2CN1[C@H](CC)c1ccc(C)cc1` (stereo in doubt) [Compound 344], the results for the EC50 in experiment [1] and in experiment [2] were 96 nM and 53 nM, respectively.

Turning to `CC[C@@H]1CN2c3c(c(=O)n(C)c4ccc(C#N)nc34)OC[C@@H]2CN1[C@@H](CC)c1ccc(C)cc1` (stereo in doubt) [Compound 345], the values for the EC50 in experiment [1] and in experiment [2] were 18 nM and 10 nM, respectively.

On to `CC[C@H]1CN(C2CCCOc3cc(C(F)(F)F)ccc32)[C@H](CC)CN1c1nc(=O)n(C)c2ccc(C#N)nc12` (stereo partly drawn) [Compound 154], for which the concentration for a half-maximal effect (EC50) in experiment [1] was 526 nM; in experiment [2] it was 734 nM.

`CC[C@H]1CN2[C@@H](COC[C@@H]2c2ccc(C(F)(F)F)cc2)CN1c1nc(=O)n(C)c2ccc(C#N)nc12` [Compound 193]: the 50% effective concentration (EC50) in experiment [1] is 1620 nM; in experiment [2] it was 1310 nM.

As for `CC[C@@H]1CN2c3c(c(=O)n(C)c4ccc(C#N)nc34)N(C)C(=O)[C@@H]2CN1[C@H](CC)c1ccc(C(F)(F)F)cc1` [Compound 199], the EC50 in experiment [1] was determined as 873 nM; in experiment [2] it was 1580 nM.

As to `CC[C@@H]1CN2c3c(c(=O)n(C)c4ccc(C#N)cc34)OC[C@@H]2CN1[C@@H](CC)c1ccc(C(F)(F)F)cc1` [Compound 210], the 50% effective concentration (EC50) in experiment [1] was 565 nM; in experiment [2], 1720 nM.

As for `CC[C@@H]1CN2c3c(c(=O)n(C)c4ccc(C#N)cc34)OC[C@@H]2CN1[C@H](CC)c1ccc(C(F)(F)F)cc1` [Compound 211], the half-maximal effective concentration (EC50) was found to be 485 nM in experiment [1] and 175 nM in experiment [2].

Take `CC[C@@H]1CN2c3c(c(=O)n(C)c4ccc(C#N)nc34)N(C)C[C@@H]2CN1[C@@H](CC)c1ccc(C(F)(F)F)cc1` [Compound 221]: the 50% effective concentration (EC50) in experiment [1] was 503 nM; in experiment [2], 624 nM.

Take `CC[C@@H]1CN2c3c(c(=O)n(C)c4ccc(C#N)nc34)OC[C@@H]2CN1[C@@H](CO)c1ccc(C(F)(F)F)cc1` [Compound 235]: the concentration giving a half-maximal response (EC50) in experiment [1] is 538 nM; in experiment [2] it was 662 nM.

With `C[C@H]1c2cccc(-c3ccc(C(F)(F)F)cc3)c2CCN1c1nc(=O)n(C)c2ccc(C#N)nc12` [Compound 241], the EC50 worked out at 588 nM in experiment [1] and 1100 nM in experiment [2].

Regarding `CC[C@@H]1CN2c3c(c(=O)[nH]c4ccc(C#N)nc34)OC[C@@H]2CN1[C@@H](CC)c1ccc(C(F)(F)F)cc1` [Compound 252], the EC50 in experiment [1] turned out to be 122 nM; in experiment [2], 106 nM.

For the compound `CC[C@@H]1CN2c3c(c(=O)n(C)c4ccc(C#N)nc34)OC[C@@H]2CN1Cc1ccc(C(F)(F)F)cc1` [Compound 265], the EC50 is 165 nM in experiment [1] and 152 nM in experiment [2].

With `CC[C@@H]1CN2c3c(c(=O)n(C)c4ccc(C#N)nc34)OC[C@@H]2CN1Cc1ccc(Cl)c(Cl)c1` [Compound 266], the EC50 is 163 nM in experiment [1] and 111 nM in experiment [2].

Turning to `CC[C@@H]1CN2c3c(c(=O)n(C)c4ccc(C#N)nc34)OC[C@@H]2CN1[C@@H](c1ccc(C(F)(F)F)cc1)C(C)C` [Compound 272], the EC50 in experiment [1] worked out at 256 nM; in experiment [2], 325 nM.
